Here are results for five compounds from patent publication US10538554B2, “Peptides and uses therefor as antiviral agents” (priority 2015, dated 2020).

Assay [1] relates to H1N1 A1/Malaysia/302/1954. Particulars: A1/Malaysia/302/1954, 48 h.
The test system of a further assay is H3N8 A/Miami/2/63. As to conditions: A/Miami/2/63, 48 h.
Another assay deals with H3N2 A/HK/8/1968. As to conditions: A/HK/8/1968, 48 h.
A further assay has as its system H9N2 A/Iran/16/2000. Particulars: 48 h.

The structures appear in SMILES notation. Read-outs that look alike come from different tables or passages of the source. Bridge positions count the residues as written; N and C are the ends. Square brackets hold non-standard residues; d marks the D form. Peptide text beside a SMILES is read from it.

On to `CC[C@@H](C)[C@H]1NC(=O)[C@@H](Cc2ccccc2)NC(=O)[C@@H](CCCNC(=N)N)NC(=O)[C@@H](CC(N)=O)NC(=O)[C@@H](Cc2c[nH]c3ccccc23)NC(=O)[C@@H]([C@H](C)O)NC(=O)[C@H](NC(=O)[C@H](CCCCN)NC(=O)[C@H](CCCCN)NC(=O)[C@H](CCCNC(=N)N)NC(=O)[C@@H](N)CCCNC(=N)N)CSSC[C@H](C(=O)O)NC(=O)[C@@H](CC(N)=O)NC1=O` [PSP III B12, H-RRKKctwnrfinc-OH] (H-RRKK[dC][dT][dW][dN][dR][dF][dI][dN][dC]-OH; disulfide 5-13), for which the “% inhibition H1N1” value in assay [1] (50 μM) was 75%. Also, the “% inhibition H3N8” value in the assay with H3N8 A/Miami/2/63 (50 μM) worked out at 87%. In addition, the “% inhibition H3N2” value with H3N2 A/HK/8/1968 (50 μM) worked out at 100%. Besides, the “% inhibition H9N2” value in the assay with H9N2 A/Iran/16/2000 (50 μM) was 83%.

With `CC[C@@H](C)[C@H]1NC(=O)[C@@H](Cc2ccccc2)NC(=O)[C@@H](CCCNC(=N)N)NC(=O)[C@@H](C(C)C)NC(=O)[C@@H](Cc2c[nH]c3ccccc23)NC(=O)[C@@H]([C@H](C)O)NC(=O)[C@H](NC(=O)[C@H](CCCCN)NC(=O)[C@H](CCCCN)NC(=O)[C@H](CCCNC(=N)N)NC(=O)[C@@H](N)CCCNC(=N)N)CSSC[C@H](C(=O)O)NC(=O)[C@@H](CC(N)=O)NC1=O` [PSP III B18, H-RRKKctwvrfinc-OH] (H-RRKK[dC][dT][dW][dV][dR][dF][dI][dN][dC]-OH; disulfide 5-13), the “% inhibition H1N1” value in assay [1] (50 μM) was 90%. For the same compound, the “% inhibition H3N8” value with H3N8 A/Miami/2/63 (50 μM) was found to be 100%. Further, the “% inhibition H3N2” value in the assay with H3N2 A/HK/8/1968 (50 μM) is 100%. Further, the “% inhibition H9N2” value with H9N2 A/Iran/16/2000 (50 μM) came to 88%.

For `CC(C)[C@H]1NC(=O)[C@@H](Cc2ccccc2)NC(=O)[C@@H](CCCNC(=N)N)NC(=O)[C@@H](CO)NC(=O)[C@@H](CCCCN)NC(=O)[C@@H]([C@H](C)O)NC(=O)[C@H](N)CSSC[C@H](C(=O)O)NC(=O)[C@@H](CC(N)=O)NC1=O` [PSP 18, H-ctksrfvnc-OH] (H-[dC][dT][dK][dS][dR][dF][dV][dN][dC]-OH; disulfide 1-9), in assay [1] (500 μM), the “% inhibition H1N1” value stood at 51.9%. Moreover, the “% inhibition H3N8” value in the assay with H3N8 A/Miami/2/63 (500 μM) was 78.4%. In addition, the “% inhibition H3N2” value in the assay on H3N2 A/HK/8/1968 (500 μM) amounted to 70.4%. For the same compound, the “% inhibition H9N2” value in the assay on H9N2 A/Iran/16/2000 (500 μM) was 45.5%.

As to `CC[C@@H](C)[C@H]1NC(=O)[C@@H](Cc2ccccc2)NC(=O)[C@@H](CCCNC(=N)N)NC(=O)[C@@H](Cc2ccc(O)cc2)NC(=O)[C@@H](Cc2c[nH]c3ccccc23)NC(=O)[C@@H]([C@H](C)O)NC(=O)[C@H](NC(=O)[C@H](CCCCN)NC(=O)[C@H](CCCCN)NC(=O)[C@H](CCCNC(=N)N)NC(=O)[C@@H](N)CCCNC(=N)N)CSSC[C@H](C(=O)O)NC(=O)[C@@H](CC(N)=O)NC1=O` [PSP III B20, H-RRKKctwyrfinc-OH] (H-RRKK[dC][dT][dW][dY][dR][dF][dI][dN][dC]-OH; disulfide 5-13), the “% inhibition H1N1” value in assay [1] (50 μM) is given as 83%. In the assay with H3N8 A/Miami/2/63 (50 μM), the “% inhibition H3N8” value turned out to be 96%. In addition, the “% inhibition H3N2” value in the assay with H3N2 A/HK/8/1968 (50 μM) is 100%. For the same compound, the “% inhibition H9N2” value with H9N2 A/Iran/16/2000 (50 μM) turned out to be 86%.

As for `CC[C@@H](C)[C@H]1NC(=O)[C@@H](Cc2ccccc2)NC(=O)[C@@H](CCCNC(=N)N)NC(=O)[C@@H](CCC(N)=O)NC(=O)[C@@H](Cc2c[nH]c3ccccc23)NC(=O)[C@@H]([C@H](C)O)NC(=O)[C@H](NC(=O)[C@H](CCCCN)NC(=O)[C@H](CCCCN)NC(=O)[C@H](CCCNC(=N)N)NC(=O)[C@@H](N)CCCNC(=N)N)CSSC[C@H](C(=O)O)NC(=O)[C@@H](CC(N)=O)NC1=O` [PSP III B14, H-RRKKctwqrfinc-OH] (H-RRKK[dC][dT][dW][dQ][dR][dF][dI][dN][dC]-OH; disulfide 5-13), the “% inhibition H1N1” value in assay [1] (50 μM) is on record as 83%. Also, the “% inhibition H3N8” value with H3N8 A/Miami/2/63 (50 μM) turned out to be 87%. For the same compound, in the assay with H3N2 A/HK/8/1968 (50 μM), the “% inhibition H3N2” value was 96%. Further, the “% inhibition H9N2” value in the assay with H9N2 A/Iran/16/2000 (50 μM) is 86%.
